In the data set the test system is CHO-K cells. The experiment in a line: Peptide internalization in vitro, confocal imaging, CHO-K cells. The class given is cell-based, Chinese hamster. To be noted: FAM-labeled peptide 20 μM, 3 h, 37°C, confocal fluorescence imaging, representative of three experiments. The protocol:
Figure 1. Microdialysis-captured peptides penetrate the cell membrane. […] CHO-K cells were grown on chamber slides. […] The scale bar is 20 μm. Images are representative of three individual experiments.
Plain growth medium was used as a negative control.

Consider “CARSKNKDC [FAM-labeled synthetic CAR peptide (…), known cell- and tissue-penetrating homing peptide, reference compound]”, for which the “cellular uptake in CHO-K cells” value is given as “accumulate in the CHO-K cells”.

For the origin of these results see paper PMC11814485, “Screening of homing and tissue-penetrating peptides by microdialysis and in vivo phage display” (Life Science Alliance, 2025).
